From patent US20240425523A1, “Compounds for the Degradation of EGFR Kinase” (Beigene Switzerland GMBH, priority 2023, published 2024)

Legend:
Format in all cases: cell-based
[1] = target: T1, EGFR L858R (BaF3-L858R cells) (Homo sapiens, UniProt P00533, L858R); assay: Cell degradation of EGFR, HTRF assay, BaF3-L858R cells; details: 16 h treatment; for DC50: EGFR degradation; for Dmax (%) / Dmax: maximum percentage of degradation
T1 construct: host or cells: BaF3
Description: (§1) BaF3-L858R (abbv. L858R) cell were purchased from Kangyuan Bochuang Biotechnology (Beijing) Co., Ltd.
(§2) H1975-#8 and BaF3-L858R cells are treated with compounds diluted in 0.1% DMSO cell culture medium on day 2, incubate for 16 h, 37° C., 5% CO2. the final concentration of compounds in all assay is start with 10 uM, 5-fold dilution, total 8 doses were included.
(§3) After 16 h treatment, for H1975-#8 cells, add 100 ul HTRF 1× lysis buffer to each well; for BaF3-L858R cells, add 20 μl 4× lysis buffer to each well; seal the plate and incubate 1 hour at room temperature on a plate shaker; Once the cells are lysed, 16 μL of cell lysate are transferred to a PE 384-well HTRF detection plate; 4 μL of pre-mixed HTRF antibodies are added to each well; Cover the plate with a plate sealer, spin 1000 rpm for 1 min, Incubate overnight at room temperature; Read on BMG PheraStar with HTRF protocol (337 nm-665 nm-620 nm).
(§4) High control=Cell group with added DMSO and without compound, indicating microplate readings without EGFR degradation;
(§5) Dmax is the maximum percentage of inhibition (degradation).
(§6) The IC50 (DC50) value of a compound can be obtained by fitting the following equation
(§7) Y=Bottom+(TOP−Bottom)/(1+((IC50/X)^hillslope))
(§8) Wherein, X and Y are known values, and IC50, Hillslope, Top and Bottom are the parameters obtained by fitting with software. […] The experimental data were fitted by calculating and analyzing with Dotmatics data analysis software.

[2] = target: T2, EGFR-L858R/C797S (H1975-clone #8 cells) (Homo sapiens, UniProt P00533, C797S/L858R); assay: Cell degradation of EGFR, HTRF assay, H1975-clone#8 (L858R/C797S) cells; details: 16 h treatment; for DC50: EGFR degradation; for Dmax (%) / Dmax: maximum percentage of degradation
T2 construct: expressed in transfected cells; host or cells: H1975 (endogenous EGFR knocked out, clone #8)
Description: (§9) The EGFR over-expressed cells then underwent knockout, in which the EGFR targeting sgRNA was designed to only target the endogenous EGFR copies and preserve the exogenous EGFR copies. Followed by the knockout, the edited H1975 cells were seeded in 96 well plates at the concentration of 1 cell/cell, cultured for about 2 weeks to allow single clones formation. The formed clones were screened by DNA sequencing and whole exon sequencing analysis for the desired edition.
as §2, §3, §4, §5, §6, §7, §8

[3] = target: T3, p-EGFR L858R (BaF3-L858R cells) (Homo sapiens, UniProt P00533, L858R); assay: Cell p-EGFR inhibition assay, HTRF, BaF3-L858R cells; details: 16 h treatment; for Imax (%): maximum percentage of pEGFR inhibition; for IC50: pEGFR inhibition
T3 construct: host or cells: BaF3
Description: as §1
(§10) H1975-#23 and BaF3-L858R cells are treated with compounds diluted in 0.1% DMSO cell culture medium on day 2, incubate for 16 h, 37° C., 5% CO2. the final concentration of compounds in all assay is start with 10 uM, 5-fold dilution, total 8 doses were included.
as §3, with “for H1975-#23” for “for H1975-#8”, “add 50” for “add 100”
(§11) High control=Cell group with added DMSO and without compound, indicating microplate readings without p-EGFR inhibited.
(§12) Imax is the maximum percentage of inhibition.
(§13) The IC50 value of a compound can be obtained by fitting the following equation.
as §8

[4] = target: p-EGFR Del19/C797S (H1975-clone #23 cells) (Homo sapiens, UniProt P00533); assay: Cell p-EGFR inhibition assay, HTRF, H1975-clone#23 (DEL19/C797S) cells; details: 16 h treatment; for Imax (%): maximum percentage of pEGFR inhibition; for IC50: pEGFR inhibition
Description: as §9, with “cell/well,” for “cell/cell,”
as §10
as §3, with “for H1975-#23” for “for H1975-#8”, “add 50” for “add 100”
as §11, §12, §13, §8

3-(5-(4-((S)-4-((7^1R,7^3S,E)-1^1,2^6-dimethyl-3-oxo-5^2,5^3-dihydro-1^1H,5^1H-9-oxa-4-aza-5(2,1)-benzo[d]imidazola-2(2,4)-pyridina-1(4,5)-pyrazola-7(1,3)-cyclopentanacyclononaphane-5^6-yl)-2-methylpiperazin-1-yl)piperidin-1-yl)-6-methylpyridin-2-yl)piperidine-2,6-dione [Example 214]
DC50 [1]: 0.65 nM
Dmax (%) [1]: 82.61%
DC50 [2]: 0.61 nM
Dmax (%) [2]: 77.32%
Imax (%) [3]: 100.54%
IC50 [3]: 3.32 nM
Imax (%) [4]: 100.03%
IC50 [4]: 0.604 nM

3-((5-(4-((S)-2-(methoxymethyl)-4-((7^1R,7^3S,E)-1^1,1^3,2^6-trimethyl-3-oxo-5^2,5^3-dihydro-1^1H,5^1H-9-oxa-4-aza-5(2,1)-benzo[d]imidazola-2(2,4)-pyridina-1(4,5)-pyrazola-7(1,3)-cyclopentanacyclononaphane-5^6-yl)piperazin-1-yl)piperidin-1-yl)-4,6-dimethylpyridin-2-yl)oxy)piperidine-2,6-dione [Example 167]
DC50 [1]: 4.72 nM
Dmax (%) [1]: 83.25%
DC50 [2]: 4.33 nM
Dmax (%) [2]: 88.56%
Imax (%) [3]: 98.09%
IC50 [3]: 6.86 nM
Imax (%) [4]: 102.84%
IC50 [4]: 3.01 nM

Cc1cc2cc(n1)-c1cnn(C)c1OC[C@H]1CCC(C1)CN1/C(=N/C2=O)Nc2ccc(N3CCN([C@H]4CCN(c5cc(F)c([C@H]6CCC(=O)NC6=O)c(F)c5)C[C@H]4F)CC3)cc21 (single isomer, unassigned) [Example 84]
DC50 [1]: 4.01 nM
Dmax [1]: 79.7%
DC50 [2]: 2.1 nM
Dmax [2]: 64.7%
Imax (%) [3]: 109.3%
IC50 [3]: 6 nM
Imax (%) [4]: 100.5%
IC50 [4]: 0.5 nM

Cc1cc2cc(n1)-c1cnn(C)c1OC[C@H]1CCC(C1)CN1/C(=N/C2=O)Nc2ccc(N3CCC(N4CCC(Nc5cc(F)c([C@H]6CCC(=O)NC6=O)c(F)c5)CC4)CC3)cc21 (single isomer, unassigned) [Example 116]
DC50 [1]: 1.25 nM
Dmax [1]: 85.4%
DC50 [2]: 0.61 nM
Dmax [2]: 83.4%
Imax (%) [3]: 98.5%
IC50 [3]: 7.9 nM
Imax (%) [4]: 99.4%
IC50 [4]: 0.8 nM

Cc1cc2cc(n1)-c1c(C)nn(C)c1OC[C@H]1CC[C@H](C1)CN1/C(=N/C2=O)Nc2ccc(N3CCN([C@H]4CCN(c5cc(F)c([C@H]6CCC(=O)NC6=O)c(F)c5)C4)CC3)cc21 (single isomer, unassigned) [Example 186]
DC50 [1]: 3.82 nM
Dmax [1]: 80%
DC50 [2]: 2.92 nM
Dmax [2]: 80.4%
Imax (%) [3]: 92%
IC50 [3]: 4.77 nM
Imax (%) [4]: 100.56%
IC50 [4]: 2.37 nM

Cc1cc2cc(n1)-c1c(C)nn(C)c1OC[C@H]1CC[C@H](C1)CN1/C(=N/C2=O)Nc2ccc(N3CCC(N4CCC(Nc5cc(F)c([C@H]6CCC(=O)NC6=O)c(F)c5)CC4)CC3)cc21 (single isomer, unassigned) [Example 213]
DC50 [1]: 2.18 nM
Dmax [1]: 88.3%
DC50 [2]: 0.63 nM
Dmax [2]: 82.5%
Imax (%) [3]: 88.33%
IC50 [3]: 0.871 nM
Imax (%) [4]: 98.77%
IC50 [4]: 1.69 nM

Cc1cc2cc(n1)-c1cnn(C)c1OC[C@H]1CC[C@H](C1)CN1/C(=N/C2=O)Nc2ccc(N3CCN(CC4CN(c5ccc6c(c5)CN(C5CCC(=O)NC5=O)C6=O)C4)CC3)cc21 (stereo partly shown) [Example 35, 3-(5-(3-((4-((7^1R,7^3S,E)-1^1,2^6-dimethyl-3-oxo-5^2,5^3-dihydro-1^1H,5^1H-9-oxa-4-aza-5(2,1)-benzo[d]imidazola-2(2,4)-pyridina-1(4,5)-pyrazola-7(1,3)-cyclopentanacyclononaphane-5^6-yl)piperazin-1-yl)methyl)azetidin-1-yl)-1-oxoisoindolin-2-yl)piperidine-2,6-dione]
DC50 [1]: 0.49 nM
Dmax [1]: 91.8%
DC50 [2]: 0.6 nM
Dmax [2]: 58%
Imax (%) [3]: 91.6%
IC50 [3]: 1.3 nM
Imax (%) [4]: 101.1%
IC50 [4]: 0.5 nM

Cc1cc2cc(n1)-c1cnn(C)c1OC[C@H]1CC[C@H](C1)CN1/C(=N/C2=O)Nc2ccc(N3CCN(C4CCN(c5ccc(OC6CCC(=O)NC6=O)cc5)CC4)CC3)cc21 (stereo partly shown) [Example 57, 3-(4-(4-(4-((7^1R,7^3S,E)-1^1,2^6-dimethyl-3-oxo-5^2,5^3-dihydro-1^1H,5^1H-9-oxa-4-aza-5(2,1)-benzo[d]imidazola-2(2,4)-pyridina-1(4,5)-pyrazola-7(1,3)-cyclopentanacyclononaphane-5^6-yl)piperazin-1-yl)piperidin-1-yl)phenoxy)piperidine-2,6-dione]
DC50 [1]: 3.84 nM
Dmax [1]: 82.6%
DC50 [2]: 3.14 nM
Dmax [2]: 58.5%
Imax (%) [3]: 101%
IC50 [3]: 10.5 nM
Imax (%) [4]: 97.9%
IC50 [4]: 1.2 nM

Cc1cc2cc(n1)-c1cnn(C)c1OC[C@H]1CC[C@H](C1)CN1/C(=N/C2=O)Nc2ccc(N3CCN(C4CCN(c5ccc(NC6CCC(=O)NC6=O)cc5F)CC4)CC3)cc21 (stereo partly shown) [Example 59, 3-((4-(4-(4-((7^1R,7^3S,E)-1^1,2^6-dimethyl-3-oxo-5^2,5^3-dihydro-1^1H,5^1H-9-oxa-4-aza-5(2,1)-benzo[d]imidazola-2(2,4)-pyridina-1(4,5)-pyrazola-7(1,3)-cyclopentanacyclononaphane-5^6-yl)piperazin-1-yl)piperidin-1-yl)-3-fluorophenyl)amino)piperidine-2,6-dione]
DC50 [1]: 3.18 nM
Dmax [1]: 85.1%
DC50 [2]: 2.87 nM
Dmax [2]: 69%
Imax (%) [3]: 102.5%
IC50 [3]: 7 nM
Imax (%) [4]: 99.6%
IC50 [4]: 0.7 nM

COC[C@@H]1CN(c2ccc3c(c2)N2C[C@@H]4CC[C@H](COc5c(cnn5C)-c5cc(cc(C)n5)C(=O)/N=C/2N3)C4)CCN1CC1CN(c2ccc3c(c2)CN(C2CCC(=O)NC2=O)C3=O)C1 (stereo partly drawn) [Example 63, 3-(5-(3-(((S)-4-((7^1R,7^3S,E)-1^1,2^6-dimethyl-3-oxo-5^2,5^3-dihydro-1^1H,5^1H-9-oxa-4-aza-5(2,1)-benzo[d]imidazola-2(2,4)-pyridina-1(4,5)-pyrazola-7(1,3)-cyclopentanacyclononaphane-5^6-yl)-2-(methoxymethyl)piperazin-1-yl)methyl)azetidin-1-yl)-1-oxoisoindolin-2-yl)piperidine-2,6-dione]
DC50 [1]: 0.55 nM
Dmax [1]: 90%
DC50 [2]: 0.61 nM
Dmax [2]: 60.9%
Imax (%) [3]: 103%
IC50 [3]: 0.2 nM
Imax (%) [4]: 100.6%
IC50 [4]: 0.2 nM

COC[C@H]1CN(c2ccc3c(c2)N2C[C@@H]4CC[C@H](COc5c(cnn5C)-c5cc(cc(C)n5)C(=O)/N=C/2N3)C4)CCN1C1CCN(c2cc(F)c([C@H]3CCC(=O)NC3=O)c(F)c2)CC1 [Example 64, (R)-3-(4-(4-((R)-4-((7^1R,7^3S,E)-1^1,2^6-dimethyl-3-oxo-5^2,5^3-dihydro-1^1H,5^1H-9-oxa-4-aza-5(2,1)-benzo[d]imidazola-2(2,4)-pyridina-1(4,5)-pyrazola-7(1,3)-cyclopentanacyclononaphane-5^6-yl)-2-(methoxymethyl)piperazin-1-yl)piperidin-1-yl)-2,6-difluorophenyl)piperidine-2,6-dione]
DC50 [1]: 1.07 nM
Dmax [1]: 83.3%
DC50 [2]: 1.87 nM
Dmax [2]: 70%
Imax (%) [3]: 101.9%
IC50 [3]: 3.2 nM
Imax (%) [4]: 101.2%
IC50 [4]: 0.7 nM
